Results from the supplement of paper PMC12463676, “Small-molecule dissolution of stress granules by redox modulation benefits ALS models” (Nature Chemical Biology, 2025).

Key:
lipoamide = compound: NC(=O)CCCCC1CCSS1 [lipoamide]; test: thermal stability z-score vs DMSO; higher = more thermally stabilized by treatment; conditions: HeLa, lipoamide concentration 100 µM
Protocol: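 Cellular thermal proteome profiling in HeLa cells. Cells were treated with 100 µM lipoamide for 1 h, with or without 1 mM arsenate for a further 1 h, then heated to ten temperatures (37-66.3 °C), and soluble protein was quantified by TMT mass spectrometry relative to 0.1% DMSO controls. The thermal stability score (sum of log2 fold changes minus the abundance score) was transformed to a z-score; mean of n = 3 experiments.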

potassium arsenate = compound: O=[As]([O-])(O)O.[K+] [potassium arsenate]; test: as above; conditions: HeLa; arsenate concentration 1 mM
Protocol: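 Cellular thermal proteome profiling in HeLa cells treated with 1 mM arsenate for 1 h (DMSO pretreatment), heated to ten temperatures (37-66.3 °C). Soluble protein was quantified by TMT mass spectrometry relative to DMSO controls; the thermal stability score was transformed to a z-score; mean of n = 3 experiments.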

[1] = arsenate co-treatment: 1 mM arsenate 1 h
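Note: each temperature applied for 3 min, abundance score taken as mean log2 fold change at the two lowest temperatures, z-score obtained by mean subtraction and division by SD.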

Target: NUP155 (UniProt O75694)
- thermal stability z-score (lipoamide; [1]): -0.814
- thermal stability z-score (lipoamide; arsenate co-treatment: none): -0.769
- thermal stability z-score (potassium arsenate): 0.275

Target: CCDC186 (UniProt Q7Z3E2)
- thermal stability z-score (lipoamide; [1]): -0.0502
- thermal stability z-score (lipoamide; arsenate co-treatment: none): -0.00496
- thermal stability z-score (potassium arsenate): 0.0522

Target: IVNS1ABP (UniProt Q9Y6Y0)
- thermal stability z-score (lipoamide; [1]): 0.601
- thermal stability z-score (lipoamide; arsenate co-treatment: none): 0.743
- thermal stability z-score (potassium arsenate): -0.145

Target: SLC31A1 (UniProt O15431)
- thermal stability z-score (lipoamide; [1]): 0.126
- thermal stability z-score (lipoamide; arsenate co-treatment: none): 0.215
- thermal stability z-score (potassium arsenate): 0.321

Target: TRIM29 (UniProt Q14134)
- thermal stability z-score (lipoamide; [1]): -0.0886
- thermal stability z-score (lipoamide; arsenate co-treatment: none): 0.185
- thermal stability z-score (potassium arsenate): -0.177

Target: NAXE (UniProt Q8NCW5)
- thermal stability z-score (lipoamide; [1]): 0.137
- thermal stability z-score (lipoamide; arsenate co-treatment: none): 0.266
- thermal stability z-score (potassium arsenate): -0.422

Target: ZRANB2 (UniProt O95218)
UniProt O95218, sequence (O95218 whole entry): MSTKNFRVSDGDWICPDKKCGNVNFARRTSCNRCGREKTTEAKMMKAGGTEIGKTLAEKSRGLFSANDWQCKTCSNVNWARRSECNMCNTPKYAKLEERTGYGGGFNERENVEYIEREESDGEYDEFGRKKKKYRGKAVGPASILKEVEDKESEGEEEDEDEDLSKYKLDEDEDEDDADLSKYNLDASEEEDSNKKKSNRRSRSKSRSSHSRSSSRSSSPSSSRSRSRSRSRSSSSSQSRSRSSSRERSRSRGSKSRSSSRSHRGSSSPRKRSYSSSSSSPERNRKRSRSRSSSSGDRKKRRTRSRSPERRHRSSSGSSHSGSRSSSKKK
- thermal stability z-score (lipoamide; [1]): -0.755
- thermal stability z-score (lipoamide; arsenate co-treatment: none): -0.097
- thermal stability z-score (potassium arsenate): -0.286

Target: E2F3 (UniProt O00716)
- thermal stability z-score (lipoamide; [1]): -0.295
- thermal stability z-score (lipoamide; arsenate co-treatment: none): -0.154
- thermal stability z-score (potassium arsenate): -0.342

Target: MRPS25 (UniProt P82663)
- thermal stability z-score (lipoamide; [1]): 0.0295
- thermal stability z-score (lipoamide; arsenate co-treatment: none): 0.0583
- thermal stability z-score (potassium arsenate): 0.445

Target: USMG5 (UniProt Q96IX5)
UniProt Q96IX5, sequence (Q96IX5 whole entry): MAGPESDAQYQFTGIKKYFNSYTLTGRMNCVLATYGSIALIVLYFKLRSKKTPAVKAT
- thermal stability z-score (lipoamide; [1]): 1.21
- thermal stability z-score (lipoamide; arsenate co-treatment: none): 0.486
- thermal stability z-score (potassium arsenate): 0.215

Target: NAT10 (UniProt Q9H0A0)
- thermal stability z-score (lipoamide; [1]): 0.444
- thermal stability z-score (lipoamide; arsenate co-treatment: none): -0.105
- thermal stability z-score (potassium arsenate): -0.812

Target: SNX17 (UniProt Q15036)
- thermal stability z-score (lipoamide; [1]): -0.581
- thermal stability z-score (lipoamide; arsenate co-treatment: none): 0.118
- thermal stability z-score (potassium arsenate): -0.423

Target: GAPVD1 (UniProt Q14C86)
UniProt Q14C86, sequence (Q14C86 whole entry): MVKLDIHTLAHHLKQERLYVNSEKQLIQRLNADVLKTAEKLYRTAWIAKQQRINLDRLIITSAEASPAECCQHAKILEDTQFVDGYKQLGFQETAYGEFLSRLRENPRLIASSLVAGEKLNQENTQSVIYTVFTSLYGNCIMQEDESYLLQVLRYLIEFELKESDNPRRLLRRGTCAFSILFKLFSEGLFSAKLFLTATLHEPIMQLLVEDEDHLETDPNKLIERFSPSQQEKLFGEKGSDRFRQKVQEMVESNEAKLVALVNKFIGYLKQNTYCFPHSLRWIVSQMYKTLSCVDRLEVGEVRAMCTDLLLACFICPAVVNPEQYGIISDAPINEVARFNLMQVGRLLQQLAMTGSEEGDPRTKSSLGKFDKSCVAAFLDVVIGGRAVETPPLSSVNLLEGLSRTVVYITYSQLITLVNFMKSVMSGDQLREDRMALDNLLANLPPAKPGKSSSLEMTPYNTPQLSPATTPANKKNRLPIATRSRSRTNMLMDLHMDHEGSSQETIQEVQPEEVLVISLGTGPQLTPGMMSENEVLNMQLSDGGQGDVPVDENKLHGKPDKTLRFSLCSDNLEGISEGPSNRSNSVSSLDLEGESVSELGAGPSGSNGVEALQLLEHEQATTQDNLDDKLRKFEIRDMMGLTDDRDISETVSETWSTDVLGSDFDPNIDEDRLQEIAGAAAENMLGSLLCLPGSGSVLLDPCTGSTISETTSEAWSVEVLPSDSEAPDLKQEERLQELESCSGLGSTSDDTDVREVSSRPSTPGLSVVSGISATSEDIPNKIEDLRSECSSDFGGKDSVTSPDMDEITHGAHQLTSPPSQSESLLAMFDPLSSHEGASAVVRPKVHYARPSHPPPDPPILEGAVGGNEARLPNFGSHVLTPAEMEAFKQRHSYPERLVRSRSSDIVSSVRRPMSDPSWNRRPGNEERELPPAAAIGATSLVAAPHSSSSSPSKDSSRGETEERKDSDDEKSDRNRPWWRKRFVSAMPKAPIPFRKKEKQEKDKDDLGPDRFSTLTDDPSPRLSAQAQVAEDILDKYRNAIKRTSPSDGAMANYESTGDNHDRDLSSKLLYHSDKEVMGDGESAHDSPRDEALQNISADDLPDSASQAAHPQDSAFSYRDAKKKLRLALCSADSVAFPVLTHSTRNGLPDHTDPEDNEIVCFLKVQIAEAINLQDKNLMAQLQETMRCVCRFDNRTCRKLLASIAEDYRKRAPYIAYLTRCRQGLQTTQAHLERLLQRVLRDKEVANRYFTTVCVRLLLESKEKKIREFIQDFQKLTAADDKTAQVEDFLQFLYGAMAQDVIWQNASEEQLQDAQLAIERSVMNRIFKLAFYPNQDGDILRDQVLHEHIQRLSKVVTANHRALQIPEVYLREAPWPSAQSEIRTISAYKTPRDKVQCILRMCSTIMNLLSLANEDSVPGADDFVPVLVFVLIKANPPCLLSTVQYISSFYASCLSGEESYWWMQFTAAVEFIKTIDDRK
- thermal stability z-score (lipoamide; [1]): -0.367
- thermal stability z-score (lipoamide; arsenate co-treatment: none): -0.206
- thermal stability z-score (potassium arsenate): 0.0188

Target: SEC16A (UniProt O15027)
UniProt O15027, sequence (O15027 whole entry): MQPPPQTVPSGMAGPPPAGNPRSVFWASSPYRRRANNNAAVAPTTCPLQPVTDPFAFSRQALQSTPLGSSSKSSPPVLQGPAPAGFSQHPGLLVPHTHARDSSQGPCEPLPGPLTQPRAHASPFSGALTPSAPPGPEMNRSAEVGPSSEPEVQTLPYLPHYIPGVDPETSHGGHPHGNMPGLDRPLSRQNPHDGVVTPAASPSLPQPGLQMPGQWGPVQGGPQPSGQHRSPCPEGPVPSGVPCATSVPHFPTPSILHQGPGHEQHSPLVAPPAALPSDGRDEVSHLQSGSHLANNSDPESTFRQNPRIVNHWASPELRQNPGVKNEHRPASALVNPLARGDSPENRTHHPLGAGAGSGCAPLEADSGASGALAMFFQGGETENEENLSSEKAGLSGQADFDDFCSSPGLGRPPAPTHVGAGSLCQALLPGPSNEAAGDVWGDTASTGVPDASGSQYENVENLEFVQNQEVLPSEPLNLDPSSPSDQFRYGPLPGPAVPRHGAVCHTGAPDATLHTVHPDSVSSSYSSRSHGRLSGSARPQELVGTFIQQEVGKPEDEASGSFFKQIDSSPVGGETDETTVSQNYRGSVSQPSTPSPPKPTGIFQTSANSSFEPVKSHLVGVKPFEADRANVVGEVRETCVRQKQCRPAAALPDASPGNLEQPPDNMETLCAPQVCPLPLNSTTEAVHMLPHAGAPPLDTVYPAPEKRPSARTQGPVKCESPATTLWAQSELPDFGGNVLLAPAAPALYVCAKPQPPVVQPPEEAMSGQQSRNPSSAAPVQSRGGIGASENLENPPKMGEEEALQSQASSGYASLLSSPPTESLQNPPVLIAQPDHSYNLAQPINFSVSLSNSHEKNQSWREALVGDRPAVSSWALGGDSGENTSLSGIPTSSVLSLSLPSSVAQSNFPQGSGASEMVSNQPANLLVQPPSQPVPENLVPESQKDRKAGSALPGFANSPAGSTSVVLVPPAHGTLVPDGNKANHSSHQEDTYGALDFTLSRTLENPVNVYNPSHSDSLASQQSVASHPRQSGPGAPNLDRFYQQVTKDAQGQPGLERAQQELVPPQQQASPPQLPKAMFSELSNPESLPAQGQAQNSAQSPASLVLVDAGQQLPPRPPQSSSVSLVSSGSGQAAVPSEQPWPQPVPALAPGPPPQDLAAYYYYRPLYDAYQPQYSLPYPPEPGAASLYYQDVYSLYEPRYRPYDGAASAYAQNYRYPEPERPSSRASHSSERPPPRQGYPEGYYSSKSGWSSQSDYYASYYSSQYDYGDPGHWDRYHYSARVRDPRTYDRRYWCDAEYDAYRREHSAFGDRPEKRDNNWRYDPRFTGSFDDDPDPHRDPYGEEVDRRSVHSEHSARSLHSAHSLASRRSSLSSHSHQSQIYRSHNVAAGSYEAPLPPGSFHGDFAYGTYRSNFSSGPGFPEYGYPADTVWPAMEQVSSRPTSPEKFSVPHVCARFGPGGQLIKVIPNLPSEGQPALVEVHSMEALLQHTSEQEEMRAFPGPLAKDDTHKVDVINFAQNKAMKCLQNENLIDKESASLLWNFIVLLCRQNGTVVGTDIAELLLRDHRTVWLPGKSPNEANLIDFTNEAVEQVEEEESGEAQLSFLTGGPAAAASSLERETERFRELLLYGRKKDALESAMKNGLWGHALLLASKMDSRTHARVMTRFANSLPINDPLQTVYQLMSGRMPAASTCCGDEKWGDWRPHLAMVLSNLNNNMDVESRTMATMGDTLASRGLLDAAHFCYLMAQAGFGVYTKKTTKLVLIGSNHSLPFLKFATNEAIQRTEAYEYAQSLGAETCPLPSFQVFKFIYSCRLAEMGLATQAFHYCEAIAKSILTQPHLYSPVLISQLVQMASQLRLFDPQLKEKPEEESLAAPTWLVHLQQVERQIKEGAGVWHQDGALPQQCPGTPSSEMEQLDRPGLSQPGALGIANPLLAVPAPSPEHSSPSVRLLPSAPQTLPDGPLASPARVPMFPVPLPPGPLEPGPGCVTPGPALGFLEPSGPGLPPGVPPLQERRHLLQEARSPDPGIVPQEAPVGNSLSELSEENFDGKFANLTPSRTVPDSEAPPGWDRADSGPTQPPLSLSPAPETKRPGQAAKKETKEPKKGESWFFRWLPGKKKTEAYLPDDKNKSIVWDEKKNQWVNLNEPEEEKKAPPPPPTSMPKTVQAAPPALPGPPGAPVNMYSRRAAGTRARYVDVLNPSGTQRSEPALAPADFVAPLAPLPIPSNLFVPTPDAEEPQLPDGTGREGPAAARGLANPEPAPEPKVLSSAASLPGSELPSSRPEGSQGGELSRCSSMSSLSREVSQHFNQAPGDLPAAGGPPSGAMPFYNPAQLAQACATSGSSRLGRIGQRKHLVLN
- thermal stability z-score (lipoamide; [1]): 0.237
- thermal stability z-score (lipoamide; arsenate co-treatment: none): 1.39
- thermal stability z-score (potassium arsenate): 0.285

Target: CEP85 (UniProt Q6P2H3)
- thermal stability z-score (lipoamide; [1]): -0.00805
- thermal stability z-score (lipoamide; arsenate co-treatment: none): 0.112
- thermal stability z-score (potassium arsenate): -0.118

Target: DTX3L (UniProt Q8TDB6)
- thermal stability z-score (lipoamide; [1]): -0.78
- thermal stability z-score (lipoamide; arsenate co-treatment: none): -0.366
- thermal stability z-score (potassium arsenate): 0.176

Target: RPL37 (UniProt P61927)
- thermal stability z-score (lipoamide; [1]): 0.254
- thermal stability z-score (lipoamide; arsenate co-treatment: none): 0.203
- thermal stability z-score (potassium arsenate): -0.915

Target: GSTO1 (UniProt P78417)
- thermal stability z-score (lipoamide; [1]): 3
- thermal stability z-score (lipoamide; arsenate co-treatment: none): 2.41
- thermal stability z-score (potassium arsenate): 0.362

Target: RCOR1 (UniProt Q9UKL0)
- thermal stability z-score (lipoamide; [1]): 1.01
- thermal stability z-score (lipoamide; arsenate co-treatment: none): 0.999
- thermal stability z-score (potassium arsenate): -0.739

Target: LYRM7 (UniProt Q5U5X0)
UniProt Q5U5X0, sequence (Q5U5X0 whole entry): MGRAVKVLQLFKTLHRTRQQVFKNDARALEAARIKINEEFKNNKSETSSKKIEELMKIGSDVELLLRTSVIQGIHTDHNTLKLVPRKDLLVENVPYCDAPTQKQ
- thermal stability z-score (lipoamide; [1]): 0.507
- thermal stability z-score (lipoamide; arsenate co-treatment: none): 0.358
- thermal stability z-score (potassium arsenate): -0.0732

Target: BOLA3 (UniProt Q53S33)
- thermal stability z-score (lipoamide; [1]): -0.103
- thermal stability z-score (lipoamide; arsenate co-treatment: none): -0.245
- thermal stability z-score (potassium arsenate): 0.0193

Target: EZH2 (UniProt Q15910)
- thermal stability z-score (lipoamide; [1]): -0.0218
- thermal stability z-score (lipoamide; arsenate co-treatment: none): -0.132
- thermal stability z-score (potassium arsenate): -0.158

Target: GSTZ1 (UniProt O43708)
- thermal stability z-score (lipoamide; [1]): -0.243
- thermal stability z-score (lipoamide; arsenate co-treatment: none): 0.0552
- thermal stability z-score (potassium arsenate): 0.239

Target: DNAJC30 (UniProt Q96LL9)
- thermal stability z-score (lipoamide; [1]): -0.154
- thermal stability z-score (lipoamide; arsenate co-treatment: none): -0.0708
- thermal stability z-score (potassium arsenate): 0.0918

Target: ARGLU1 (UniProt Q9NWB6)
UniProt Q9NWB6, sequence (Q9NWB6 whole entry): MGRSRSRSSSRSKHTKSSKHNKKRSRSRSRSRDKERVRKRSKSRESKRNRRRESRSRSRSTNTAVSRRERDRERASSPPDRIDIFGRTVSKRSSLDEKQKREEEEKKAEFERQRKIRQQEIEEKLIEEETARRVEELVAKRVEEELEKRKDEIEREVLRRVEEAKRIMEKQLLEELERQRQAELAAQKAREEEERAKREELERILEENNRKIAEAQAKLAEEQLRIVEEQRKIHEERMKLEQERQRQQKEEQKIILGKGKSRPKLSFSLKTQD
- thermal stability z-score (lipoamide; [1]): 0.406
- thermal stability z-score (lipoamide; arsenate co-treatment: none): 0.211
- thermal stability z-score (potassium arsenate): -0.658

Target: DLST (UniProt P36957)
- thermal stability z-score (lipoamide; [1]): 0.396
- thermal stability z-score (lipoamide; arsenate co-treatment: none): 0.38
- thermal stability z-score (potassium arsenate): -5.05

Target: LSM6 (UniProt P62312)
- thermal stability z-score (lipoamide; [1]): 0.895
- thermal stability z-score (lipoamide; arsenate co-treatment: none): 0.267
- thermal stability z-score (potassium arsenate): -0.309

Target: CTSC (UniProt P53634)
UniProt P53634, sequence (P53634 whole entry, looked up): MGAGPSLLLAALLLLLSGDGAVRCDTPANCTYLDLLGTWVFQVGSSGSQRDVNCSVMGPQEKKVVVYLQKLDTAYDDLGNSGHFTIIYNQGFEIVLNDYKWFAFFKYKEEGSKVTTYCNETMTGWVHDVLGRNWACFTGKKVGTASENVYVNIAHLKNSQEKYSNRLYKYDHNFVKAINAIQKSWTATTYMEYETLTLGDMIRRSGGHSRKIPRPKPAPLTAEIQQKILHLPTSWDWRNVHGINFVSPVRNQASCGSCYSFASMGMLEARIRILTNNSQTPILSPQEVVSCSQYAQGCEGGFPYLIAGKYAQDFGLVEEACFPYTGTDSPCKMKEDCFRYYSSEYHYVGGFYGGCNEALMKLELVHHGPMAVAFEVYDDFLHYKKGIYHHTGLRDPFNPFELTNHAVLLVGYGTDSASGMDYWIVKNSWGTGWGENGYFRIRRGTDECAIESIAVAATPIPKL
- thermal stability z-score (lipoamide; [1]): -0.492
- thermal stability z-score (lipoamide; arsenate co-treatment: none): -0.279
- thermal stability z-score (potassium arsenate): -0.148

Target: SPTBN1 (UniProt Q01082)
- thermal stability z-score (lipoamide; [1]): 0.502
- thermal stability z-score (lipoamide; arsenate co-treatment: none): 0.309
- thermal stability z-score (potassium arsenate): -1.61

Target: BAT3|BAG6
- thermal stability z-score (lipoamide; [1]): -0.102
- thermal stability z-score (lipoamide; arsenate co-treatment: none): -0.0326
- thermal stability z-score (potassium arsenate): 0.518
